Experimental data from patent publication US20060178415A1, “Azole derivatives as antifungal agents” (priority 2002, published 2006).
≈ marks a conversion by molar mass, not a printed value. Read-outs that look alike come from different tables or passages of the source.

System: A. fum.
Assay: In vitro antifungal MIC, NCCLS M38P broth method in RPMI 1640/MOPS pH 7
Assay type: cell-based, Aspergillus fumigatus
Conditions: for MIC: Aspergillus fumigatus
Source text: The in vitro evaluation of the antifungal activity of the compound of this invention (as shown in Table I) can be performed by determining the minimum inhibitory concentration (MIC) which is the concentration of the test compound in Rosewell Park Memorial Institute (RPMI) 1640 liquid medium buffered with 3-(Morpholino)propane sulfonic acid (MOPS) to pH 7, at which there is significant inhibition of the particular fungi. In practice the National Committee for Clinical Laboratory Standard (NCCLS) M27A document for Candida and Cryptococcus and M38P for Aspergillus was used to determine the MIC and readings recorded only when the Quality Control results fell into the acceptable range. After MIC results had been recorded, 100 μL from each of the well showing no growth was spread over Sabouraud Dextrose Agar (SDA) to determine the minimum fungicidal concentration (MFC).

[1] = pH 7, read-out: MIC (A. fum.) 1008
[2] = pH 7, read-out: MIC (A. fum.) Si-l
[3] = A. fumigatus strain 1008, RPMI 1640, MOPS pH 7
[4] = A. fumigatus strain Si-l, RPMI 1640, MOPS pH 7
[5] = A. fumigatus strain 1008, RPMI 1640, MOPS pH 7, read-out: MIC (A. fum.) 1008
[6] = A. fumigatus strain Si-l, RPMI 1640, MOPS pH 7, read-out: MIC (A. fum.) Si-l

Compound | MIC [5] [µg/mL] | MIC [6] [µg/mL] | also measured
C[C@@H](N(N)C(=S)Nc1ccc(O)cc1)[C@](O)(Cn1cncn1)c1ccc(F)cc1F [Compound No. 30, 2-[(1R,2R)-2-(2,4-difluorophenyl)-2-hydroxy-1-methyl-3-(1H-1,2,4-triazol-1-yl)propyl]-4-[4-hydroxyphenyl]thiosemicarbazide] |  |  | MIC [1]: > 16 µg/mL; MIC [2]: > 16 µg/mL
COC(=O)C(CC(C)C)n1cnn([C@H](C)[C@](O)(Cn2cncn2)c2ccc(F)cc2F)c1=S (stereo partly drawn) [Compound No. 51, Methyl-2-isobutyl-2-[[(1R,2R)-2-(2,4-difluorophenyl)-2-hydroxy-1-methyl-3-(1H-1,2,4-triaolyl)propyl]-(2H,4H)-1,2,4-triazol-3-thion-4-yl]acetate] |  |  | MIC (A. fum.) 1008 [3]: >16 µg/mL; MIC (A. fum.) Si-l [4]: <16 µg/mL
C[C@@H](N(N)C(=S)Nc1ccc(OCC(F)(F)C(F)F)cc1)[C@](O)(Cn1cncn1)c1ccc(F)cc1F [Compound No. 31, 2-[(1R,2R)-2-(2,4-difluorophenyl)-2-hydroxy-1-methyl-3-(1H-1,2,4-triazol-1-yl)propyl]-4-[4-(2,2,3,3-tetrafluoropropoxy)phenyl]thiosemicarbazide] | 1 (≈ 1.82 µM) | 0.25 (≈ 0.456 µM) | 
COC(=O)C(CCSC)n1cnn([C@H](C)[C@](O)(Cn2cncn2)c2ccc(F)cc2F)c1=S (stereo partly drawn) [Compound No. 52, Methyl-2-methylthioethyl-2-[[(1R,2R)-2-(2,4-difluorophenyl)-2-hydroxy-1-methyl-3-(1H-1,2,4-triaolyl)propyl]-(2H,4H)-1,2,4-triazol-3-thion-4-yl]acetate] |  |  | MIC (A. fum.) 1008 [3]: >16 µg/mL; MIC (A. fum.) Si-l [4]: >16 µg/mL
C[C@@H](N(N)C(=S)Nc1cnc2ccccc2c1)[C@](O)(Cn1cncn1)c1ccc(F)cc1F [Compound No. 39, 2-[(1R,2R)-2-(2,4-Difluorophenyl)-2-hydroxy-1-methyl-3-(1H-1,2,4-triazol-1-yl)propyl]-4-[quinolin-3-yl]thiosemicarbazide] |  |  | MIC [1]: 16 µg/mL (≈ 34.1 µM); MIC [2]: 4 µg/mL (≈ 8.52 µM)
C[C@@H](N(NC(=O)OC(C)(C)C)C(=S)Nc1ccc(OC2CCCCO2)cc1)[C@](O)(Cn1cncn1)c1ccc(F)cc1F (stereo partly drawn) [Compound No. 5, 1-t-Butoxycarbonyl-2-[(1R,2R)-2-(2,4-difluorophenyl)-2-hydroxy-1-methyl-3-(1H-1,2,4-triazol-1-yl)propyl]-4-[4-(tetrahydropyranyloxy)phenyl]thiosemicarbazide] | > 16 | > 16 | 
COc1ccc(NC(=O)N(NC(=O)OC(C)(C)C)[C@H](C)[C@](O)(Cn2cncn2)c2ccc(F)cc2F)c(OC)c1 [Compound No. 27, 1-t-Butoxycarbonyl-2-[(1R,2R)-2-(2,4-difluorophenyl)-2-hydroxy-1-methyl-3-(1H-1,2,4-triazol-1-yl)propyl]-4-[2,4-dimethoxyphenyl]semicarbazide] | > 16 | > 16 | 
C[C@@H](N(N)C(=S)NCc1ccco1)[C@](O)(Cn1cncn1)c1ccc(F)cc1F [Compound No. 35, 2-[(1R,2R)-2-(2,4-difluorophenyl)-2-hydroxy-1-methyl-3-(1H-1,2,4-triazol-1-yl)propyl]-4-[2-furanmethyl]thiosemicarbazide] |  |  | MIC (A. fum.) 1008 [3]: 4 µg/mL (≈ 9.47 µM); MIC (A. fum.) Si-l [4]: 4 µg/mL (≈ 9.47 µM)
C[C@@H](n1ncn(-c2ccc(OCC(F)(F)C(F)F)cc2)c1=S)[C@](O)(Cn1cncn1)c1ccc(F)cc1F [Compound No. 42, 2-[(1R,2R)-2-(2,4-difluorophenyl)-2-hydroxy-1-methyl-3-(1,2,4-triazol-1-yl)propyl]-4-[4-(2,2,3,3-tetrafluoropropoxy)phenyl]-(2H,4H)-1,2,4-triazol-3-thione] | 0.25 (≈ 0.448 µM) | 0.125 (≈ 0.224 µM) | 
COc1ccc(NC(=S)N(N)[C@H](C)[C@](O)(Cn2cncn2)c2ccc(F)cc2F)c(OC)c1 [Compound No. 32, 2-[(1R,2R)-2-(2,4-difluorophenyl)-2-hydroxy-1-methyl-3-(1H-1,2,4-triazol-1-yl)propyl]-4-[2,4-dimethoxyphenyl]thiosemicarbazide] | > 16 | > 16 | 
C[C@@H](N(NC(=O)OC(C)(C)C)C(=S)Nc1ccc(-n2cnnn2)cc1)[C@](O)(Cn1cncn1)c1ccc(F)cc1F [Compound No. 9, 1-t-Butoxycarbonyl-2-[(1R,2R)-2-(2,4-difluorophenyl)-2-hydroxy-1-methyl-3-(1H-1,2,4-triazol-1-yl)propyl]-4-[4-([1,2,3,4-tetrazol-1-yl])phenyl]thiosemicarbazide] | > 16 | > 16 | 
C[C@@H](N(N)C(=S)Nc1ccc(C(F)(F)F)cc1)[C@](O)(Cn1cncn1)c1ccc(F)cc1F [Compound No. 33, 2-[(1R,2R)-2-(2,4-difluorophenyl)-2-hydroxy-1-methyl-3-(1H-1,2,4-triazol-1-yl)propyl]-4-[4-trifluoromethylphenyl]thiosemicarbazide] | 4 (≈ 8.22 µM) | 2 (≈ 4.11 µM) | 
1-t-Butoxycarbonyl-2-[(1R,2R)-2-(2,4-difluorophenyl)-2-hydroxy-1-methyl-3-(1H-1,2,4-triazol-1-yl)propyl]-4-[4-[4-chlorophenyl]piperizin-1-yl]phenyl]thiosemicarbazide [Compound No. 12] |  |  | MIC (A. fum.) 1008 [3]: 0.25 µg/mL; MIC (A. fum.) Si-l [4]: 0.25 µg/mL
C[C@@H](N(NC(=O)OC(C)(C)C)C(=S)Nc1ccc(OCC(F)(F)C(F)F)cc1)[C@](O)(Cn1cncn1)c1ccc(F)cc1F [Compound No. 7, 1-t-Butoxycarbonyl-2-[(1R,2R)-2-(2,4-difluorophenyl)-2-hydroxy-1-methyl-3-(1H-1,2,4-triazol-1-yl)propyl]-4-[4-(2,2,3,3-tetrafluoropropoxy)phenyl]thiosemicarbazide] | 4 (≈ 6.17 µM) | 4 (≈ 6.17 µM) | 
C[C@@H](N(NC(=O)OC(C)(C)C)C(=S)Nc1ccc(F)cc1F)[C@](O)(Cn1cncn1)c1ccc(F)cc1F [Compound No. 2, 1-t-Butoxycarbonyl-2-[(1R,2R)-2-(2,4-difluorophenyl)-2-hydroxy-1-methyl-3-(1H-1,2,4-triazol-1-yl)propyl]-4-[2,4-difluorophenyl]thiosemicarbazide] | > 16 | > 16 | 
C[C@@H](N(N)C(=S)Nc1ccc(OC(F)(F)F)cc1)[C@](O)(Cn1cncn1)c1ccc(F)cc1F [Compound No. 34, 2-[(1R,2R)-2-(2,4-Difluorophenyl)-2-hydroxy-1-methyl-3-(1H-1,2,4-triazol-1-yl)propyl]-4-[4-trifluoromethoxyphenyl]thiosemicarbazide] | 2 (≈ 3.98 µM) | 2 (≈ 3.98 µM) | 
C[C@@H](n1ncn(-c2ccc(-n3ncnn3)cc2)c1=S)[C@](O)(Cn1cncn1)c1ccc(F)cc1F [Compound No. 44] |  |  | MIC (A. fum.) 1008 [3]: 2 µg/mL (≈ 4.03 µM); MIC (A. fum.) Si-l [4]: 2 µg/mL (≈ 4.03 µM)
C[C@@H](N(N)C(=S)Nc1ccccc1)[C@](O)(Cn1cncn1)c1ccc(F)cc1F [Compound No. 29, 2-[(1R,2R)-2-(2,4-difluorophenyl)-2-hydroxy-1-methyl-3-(1H-1,2,4-triazol-1-yl)propyl]-4-phenyl thiosemicarbazide] | > 16 | > 16 | 
C[C@@H](n1ncn(-c2ccc([N+](=O)[O-])cc2)c1=S)[C@](O)(Cn1cncn1)c1ccc(F)cc1F [Compound No. 43, 2-[(1R,2R)-2-(2,4-difluorophenyl)-2-hydroxy-1-methyl-3-(1,2,4-triazol-1-yl)propyl]-4-[4-nitrophenyl]-(2H,4H)-1,2,4-triazol-3-thione] |  |  | MIC [1]: 4 µg/mL (≈ 8.45 µM); MIC [2]: 2 µg/mL (≈ 4.22 µM)
CCCCCCCCNC(=S)N(NC(=O)OC(C)(C)C)[C@H](C)[C@](O)(Cn1cncn1)c1ccc(F)cc1F [Compound No. 15] |  |  | MIC (A. fum.) 1008 [3]: >16 µg/mL; MIC (A. fum.) Si-l [4]: >16 µg/mL
C[C@@H](n1ncn(-c2ccc(OC(F)(F)F)cc2)c1=S)[C@](O)(Cn1cncn1)c1ccc(F)cc1F [Compound No. 46, 2-[(1R,2R)-2-(2,4-Difluorophenyl)-2-hydroxy-1-methyl-3-(1H-1,2,4-triazol-1-yl)propyl]-4-[4-trifluoromethoxyphenyl]-(2H,4H)-1,2,4-triazol-3-thione] | 2 (≈ 3.9 µM) | 0.5 (≈ 0.976 µM) | 
COC(=O)C(c1ccccc1)n1cnn([C@H](C)[C@](O)(Cn2cncn2)c2ccc(F)cc2F)c1=S (some centres unmarked) [Compound No. 50] |  |  | MIC (A. fum.) 1008 [3]: >16 µg/mL; MIC (A. fum.) Si-l [4]: >16 µg/mL
C[C@@H](N(NC(=O)OC(C)(C)C)C(=O)Nc1ccc(OCC(F)(F)C(F)F)cc1)[C@](O)(Cn1cncn1)c1ccc(F)cc1F [Compound No. 26, 1-t-Butoxycarbonyl-2-[(1R,2R)-2-(2,4-difluorophenyl)-2-hydroxy-1-methyl-3-(1H-1,2,4-triazol-1-yl)propyl]-4-[4(2,2,3,3-tetrafluoropropoxy)phenyl]semicarbazide] | > 16 | > 16 | 
COc1ccc(NC(=S)N(NC(=O)OC(C)(C)C)[C@H](C)[C@](O)(Cn2cncn2)c2ccc(F)cc2F)c(OC)c1 [Compound No. 4, 1-t-Butoxycarbonyl-2-[(1R,2R)-2-(2,4-difluorophenyl)-2-hydroxy-1-methyl-3-(1H-1,2,4-triazol-1-yl)propyl]-4-[2,4-dimethoxyphenyl]thiosemicarbazide] | > 16 | > 16 | 
C[C@@H](N(NC(=O)OC(C)(C)C)C(=S)Nc1ccc([N+](=O)[O-])cc1)[C@](O)(Cn1cncn1)c1ccc(F)cc1F [Compound No. 8, 1-t-Butoxycarbonyl-2-[(1R,2R)-2-(2,4difluorophenyl)-2-hydroxy-1-methyl-3-(1H-1,2,4-triazol-1-yl)propyl]-4-[4-nitrophenyl]thiosemicarbazide] |  |  | MIC [1]: > 16 µg/mL; MIC [2]: > 16 µg/mL
